Measured values: patent US20140094413A1, “HEPATOCYTE GROWTH FACTOR (HGF) MIMICS AS THERAPEUTIC AGENTS” (WASHINGTON STATE UNIVERSITY, priority 2012, published 2014)
Structures can show the parent of a compound that is named as a salt. Where a SMILES comes first, the peptide text is derived from it. [ ]: non-standard residue; d: D form. dNle = CCCC[C@@H](N)C(=O)O; Ahx = NCCCCCC(=O)O

Assays:
Met = experiment: Inhibition of HGF-dependent Met phosphorylation in HEK293 cells; assay type: cell-based, human; settings: 10 min with HGF+/− analog
Procedure: HEK293 cells were seeded in 6 well tissue culture plates and grown to 95% confluency in DMEM containing 10% FBS. The cells were serum deprived for 24 h prior to the treatment to reduce the basal levels of phospho-Met. Following serum starvation, cocktails comprised of vehicle and HGF with/without 6-AH analogs were prepared and pre-incubated for 30 min at room temperature. The cocktail was then added to the cells for 10 min to stimulate the Met receptor and downstream proteins. Cells were harvested using RIPA lysis buffer (Millipore; Billerica, Mass.) fortified with phosphatase inhibitor cocktails 1 and 2 (Sigma-Aldrich; St. Louis, Mo.). The lysate was clarified by centrifugation at 15,000 nx g for 15 min, protein concentrations were determined using the BCA total protein assay (Pierce), and then appropriate volumes of the lysates were diluted with 2× reducing Laemmli buffer and heated for ten min at 95° C. Samples containing identical amounts of protein were resolved using SDS-PAGE (Criterion, BioRad Laboratories), transferred to nitrocellulose, and blocked in Tris-buffered saline (TBS) containing 5% milk for 1 h at room temperature. The phospho-Met antibody were added to the blocking buffer at a final concentration of 1:1000 and incubated at 4° C. overnight with gentle agitation. The membranes were then washed several times with water and TBS ([…], 0.05% Tween-20), a 1:5000 dilution of horseradish-peroxidase conjugated goat anti-rabbit antiserum was added, and the membranes further incubated for 1 h at room temperature. Proteins were visualized using the Supersignal West Pico Chemiluminescent Substrate system (Pierce, Fenton, Mo.) and molecular weights determined by comparison to protein ladders (BenchMark, Invitrogen, and Kaleidoscope, BioRad). Film images were digitized and analyzed using a UVP phosphoimager.

human HGF [1] = molecular target: T1, human HGF (Homo sapiens, UniProt P14210); experiment: HGF binding, competition with 3H-Hinge; settings: 1.25 ng HGF, 40 min at 37° C.; N=9
T1 construct: purchased R&D Systems (Minneapolis, Minn.)
T1 sequence (P14210 32-728): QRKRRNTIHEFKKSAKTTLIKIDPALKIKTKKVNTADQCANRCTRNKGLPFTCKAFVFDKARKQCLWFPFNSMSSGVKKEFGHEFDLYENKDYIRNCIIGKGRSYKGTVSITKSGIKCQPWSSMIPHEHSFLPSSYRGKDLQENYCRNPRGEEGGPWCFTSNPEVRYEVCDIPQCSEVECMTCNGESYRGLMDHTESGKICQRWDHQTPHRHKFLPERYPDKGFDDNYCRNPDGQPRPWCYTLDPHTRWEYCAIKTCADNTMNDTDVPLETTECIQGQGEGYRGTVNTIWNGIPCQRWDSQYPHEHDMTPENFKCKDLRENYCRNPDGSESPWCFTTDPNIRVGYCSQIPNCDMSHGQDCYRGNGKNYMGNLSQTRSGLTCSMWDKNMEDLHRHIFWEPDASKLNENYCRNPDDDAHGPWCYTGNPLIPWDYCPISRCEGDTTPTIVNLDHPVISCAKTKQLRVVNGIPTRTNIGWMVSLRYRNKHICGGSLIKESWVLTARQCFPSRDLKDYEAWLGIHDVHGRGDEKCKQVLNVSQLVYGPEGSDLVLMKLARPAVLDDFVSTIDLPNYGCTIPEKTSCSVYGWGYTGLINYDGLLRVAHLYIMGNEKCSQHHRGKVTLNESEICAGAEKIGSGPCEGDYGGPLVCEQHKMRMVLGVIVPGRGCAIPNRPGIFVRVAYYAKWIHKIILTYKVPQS
Procedure: The binding of 6-AH analogs to HGF was assessed by competition using a soluble binding assay. 250 μl of PBS containing human HGF (1.25 ng) were incubated with ^3H-Hinge, the central dimerization domain of HGF, in the presence of varying concentrations of 6-AH analogs between 10^−13 M to 10^−7M (half-log dilutions) for 40 min at 37° C. The incubates were then spun through Bio-Gel P6 spin columns (400 μl packed volume) for 1 min to separate free and bound ^3H-Hinge and the eluent was collected. Five milliliters of scintillation fluid was added to the eluent, which contained the HGF bound ^3H-Hinge, and was then counted using scintillation counter. Total disintegrations per minute of bound ^3H-Hinge were calculated based on machine counting efficiency. The Ki values for the binding of the peptides were determined using the Prism 5. Competition binding curves were performed in triplicate.

human HGF [2] = molecular target: T1, human HGF; experiment: HGF dimerization; assay type: biochemical; settings: analogs at 10^−10 M, heparin, 30 minute incubation
Procedure: HGF dimerization was assessed using PAGE followed by silver staining (Kawas et al., 2011). Human HGF at a concentration of 0.08 ng/μl with or without 6-AH analogs was incubated with heparin at a final concentration of 5 μg/ml. Loading buffer was then added to each sample and the mixture separated by native PAGE using gradient Criterion XT precast gels (4-12% Bis-Tris; Biorad Laboratories, Hercules, Calif.). Next the gel was silver stained for the detection of the HGF monomers and dimers. Bands were quantitated from digital images using a UVP phosphoimager (Upland, Calif.).

MDCK cells = experiment: Inhibition of HGF-dependent scattering in MDCK cells; assay type: cell-based, canine; settings: HGF 20 ng/ml, 48 h
Procedure: MDCK cells were grown to 100% confluency on the coverslips in six-well plates and washed twice with PBS. The confluent coverslips were then aseptically transferred to new six well plates containing 900 μl serum free DMEM. Norleual, Hinge peptide, and/or HGF (20 ng/ml) were added to appropriate wells. Control wells received PBS vehicle. Plates were incubated at 37° C. with 5% CO2 for 48 h. Media was removed and cells were fixed with methanol. Cells were stained with Diff-Quik Wright-Giemsa (Dade-Behring, Newark, Del.) and digital images were taken. Coverslips were removed with forceps and more digital images were captured. Pixel quantification of images was achieved using Image J and statistics were performed using Prism 5 and InStat v.3.05 (GraphPad; San Diego, Calif.).

rats = experiment: Morris water maze with i.c.v. Dihexa and HGF antagonist Hinge; assay type: in vivo, rat; settings: scopolamine treated rats

SMILES: CCCC[C@@H](N)C(=O)N[C@@H](CCSC)C(=O)N[C@H](C(=O)NCCCCCC(N)=O)[C@@H](C)CC [D-Nle-Met-Ile-NH—(CH2)5—CONH2] (H-[dNle]MI[Ahx]-NH2)
- Inhibition of HGF-dependent Met phosphorylation (Met): no ability to effect on Met activation
- Inhibition of HGF-dependent Met phosphorylation (Met; listed as Met): not different than the HGF group
- Ki (human HGF [1]): 138 nM
- Inhibition of HGF dimerization (human HGF [2]): unable to block dimerization at the concentration tested
- Inhibition of HGF-dependent MDCK cell scattering (MDCK cells): not different

SMILES: CN1[C@@H]2C[C@@H](OC(=O)[C@H](CO)c3ccccc3)C[C@H]1[C@@H]1O[C@@H]12 [scopolamine, scopolamine hydrobromide]
- Mean latency to find the pedestal, day one (rats): 114.7 s
- Mean latency to find the pedestal, final day (day 8) (rats): 84.8 s
- Mean latency to find the pedestal, fourth day (rats): 102.4 s
